Assay results: patent publication US7989466B2, “Methods to inhibit or augment an inflammatory response” (Cambridge Enterprise Limited, priority 1999, dated 2011)
Where two headings read alike, the source gives them in different places. Marks after values point to notes of the source that are not given here. Positions of bridges follow the written chain, without caps; N, C: chain ends. Non-standard residues stand in square brackets, D forms with d. Residues, ends and D or L forms follow the SMILES beside them. No end group written: not given here.

Key:
[1] = test system: MIP1α induced THP-1 migration; experiment: THP-1 trans-well migration assay, MIP1α as chemoattractant; format: cell-based, human; settings: for % inhibition at 100 μM versus MIP1α, THP-1 migration: n.s. = no statistically significant inhibition
In short: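 5×10^4 THP-1 cells with serially diluted peptide in upper chamber, 5 µm filter, recombinant human chemokine 50 ng/ml (5.9 nM) in lower chamber. Incubated 4 h at 37 °C. Migrated cells counted by MTT staining, A595 read against a THP-1 standard curve.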

[2] = test system: chemokine receptors on THP-1 cells; experiment: Binding to chemokine receptors on THP-1 cells; set-up: species or system human
Protocol: In general, specific binding is calculated as the amount of labeled agent bound in the absence of cold competitor minus the amount of labeled agent bound in the presence of cold competitor. The amount of specific binding in the presence of varied amounts of cold competitor can be used to determine the association constant for the agent, as well as the number of binding sites on the cell for the agent, using, for example, Scatchard Analysis. The agent may be labeled by radiolabeling (e.g., iodination) or with a suitable biochemical tag (e.g., biotin) or by addition of a photoactivatable crosslinking group. Agents with an association constant lower than 100 μM (i.e., which bind more strongly than an agent with an association constant of 100 μM) and which have at least about 2,500, preferably at least about 10,000, and more preferably greater than 25,000, binding sites per cell for at least one cell type which expresses a chemokine receptor, fall under the scope of this invention. THP-1 cells have at least about 5,000 MCP-1 receptors/cell.
For example, monocytes are suspended in RPMI 1640 medium without bicarbonate containing 0.2% bovine serum albumin and 0.1% azide. Radiolabeled chemokine peptide is incubated with 1-2×10^6 cells, e.g., THP-1 cells, in the presence or absence of increasing concentrations of unlabeled chemokine (MCP-1, MCP-3, MCP-4, RANTES or MIP-1α) for 15 minutes at 37° C. in a 96-well plate in a final volume of 0.2 ml (e.g., PBS+0.5% FCS). After the incubation, 0.5 ml of ice-cold wash buffer (20 mM Tris, 0.5 M NaCl, pH 7.4) is added, and cells are collected onto a polyethyleneimine-treated Whatman GF/C filter using a Brandall cell harvester. Filters are washed with 4 ml of cold wash buffer, and the radioactivity bound to the filters is counted in a γ-counter.
For Scatchard analysis, the absorbance readings at 450 nm were calibrated, by reference to a standard curve in which known amounts of labeled peptide were coupled to derivatized sepharose beads (activated thiol-sepharose 4B; Sigma T8512) via the cysteine residue in each peptide. Briefly, known amounts (1 fmol to 1 pmol) of biotin-labeled peptide were incubated with 1 mg of activated thiol-sepharose beads in 100 μl of PBS at 37° C. for 1 hour. Free activated thiols were then blocked by addition of cysteine to a final concentration of 10 mM. The peptide-conjugated beads were then washed 5 times in PBS and treated exactly as for the cells described above. The absorbance at 450 nm obtained when a known amount of peptide was coupled to the beads was used to construct a standard curve which was used to convert the absorbance readings obtained with cells into number of molecules of labeled peptide which had bound.

[3] = n.s. = no statistically significant inhibition (p > 0.05)

CC[C@@H](C)[C@H]1NC(=O)[C@@H](CCC(N)=O)NC(=O)[C@H](N)CSSC[C@H](C(N)=O)NC(=O)[C@@H](CC(C)C)NC(=O)[C@@H](CC(=O)O)NC(=O)[C@H]2CCCN2C(=O)[C@@H](CCCCN)NC(=O)[C@@H](CCC(N)=O)NC(=O)[C@@H](CCCCN)NC(=O)[C@@H](Cc2c[nH]c3ccccc23)NC1=O (H-[dC][dQ][dI][dW][dK][dQ][dK][dP][dD][dL][dC]-NH2; disulfide 1-11; N-terminus assumed)
shift of the MIP-1α dose response curve to higher concentrations ([1]; sub-maximal dose of inhibitor in the upper chamber): 5-100 fold | association constant for chemokine receptors on THP-1 cells [2]: 100 to 500 nM | number of binding sites per cell, THP-1 cells [2]: about 150,000 per cell

C=CCCCCCCCCC(=O)N[C@H]1CCC(=O)NC1=O [A-I (NR58.4), [3S]-3-(undec-10-enoylamino)piperidine-2,6-dione]
EC50 ([1]; Homo sapiens, THP-1, read-out: ED50, MIP1α chemotaxis assay): 0.0002 µM

NCCCC[C@H](NC(=O)[C@H](CCC(N)=O)NC(=O)[C@@H](N)CCCCN)C(=O)O [KQK]
ED50 versus MIP1α, inhibition of THP-1 migration [1, 3]: n.s. | number of binding sites per cell, THP-1 cells [2]: about 15,000 per cell | association constant for chemokine receptors on THP-1 cells ([2]; range printed with mixed units): 500 nM-1 μM

EICADPKQKWVQ [peptide 3(1-12)[MCP-1]]
% inhibition at 100 μM versus MIP1α, THP-1 migration [1]: 99% | EC50 ([1]; n.s. = no statistically significant inhibition (p > 0.05), read-out: ED50 versus MIP1α, inhibition of THP-1 migration): 8 ± 1 µM | number of binding sites per cell, THP-1 cells [2]: 1000 per cell | association constant (ka) for binding to THP-1 cells ([2]; listed as Peptide 3): about 10 μM | association constant (ka) for binding to THP-1 cells ([2]; listed as peptide 3): 7 µM | Kd ([2]; read-out: affinity constant for binding to THP-1 cells in the presence of 100 μM peptide 2): 8 µM

SYRRITSSKCPKEAV [peptide 2(1-15)[MCP-1]]
% inhibition at 100 μM versus MIP1α, THP-1 migration [1]: n.s. | ED50 versus MIP1α, inhibition of THP-1 migration [1, 3]: n.s. | MIPIa ED-50 ([1]; ns = not significantly different from control): ns | AVERAGE ED50, peptide 2 family: estimated ka for binding to THP-1 cells [2]: 2^e μM | association constant (ka) for binding to THP-1 cells [2]: 2 µM | number of binding sites per cell, THP-1 cells [2]: 130,000 per cell | association constant for chemokine receptors on THP-1 cells ([2]; listed as peptide 2): 250 nM | association constant for chemokine receptors on THP-1 cells ([2]; listed as peptide 2(1-15)[MCP1]): 300 nM
